Data as given in patent US20060051868A1, “Methods for increasing conifer somatic embryo initiation, capture, and multiplication” (priority 2001, published 2006).
Blank lines part the entries; values can stand above or below the compound they belong to.

What was measured:
[1] = test system: Loblolly pine megagametophytes; test: Initiation frequency of embryogenic cultures from Loblolly pine megagametophyte explants; format: cell-based
Procedure: Explants were megagametophytes isolated from Loblolly pine summer cones when embryos were at approximately stage 2-4. Seeds were. collected from four individual trees of diverse genotypes. Extracted seeds were soaked in running water for 10 minutes, agitated in 10% liquinox supplemented with 1.1 ml/l of Tween 20 for 10 minutes, and rinsed with water for 30 minutes. Seeds were sterilized in a laminar flow hood by agitating in 20% hydrogen peroxide for 10 minutes and rinsing with sterile deionized water. The seed coat, integuments, and nucellus were removed to isolate the megagametophytes. Culturing was performed in 24-well multi-well culture plates with each well having an approximate volume of 3.0 ml. Two ml of media was poured into each well.
Each replication consisted of eight adjacent wells on a multi-well plate, with one megagametophyte per well, providing three replications per multi-well plate. Twelve replications (for a total of 96 explants) were performed per treatment for each cone collection. The well plates were wrapped in Parafilm®, elastic wrap to minimize evaporation and incubated at 22-24° C. under dark conditions for nine weeks. Initiation frequency was scored for each dish by counting the number of explants which had successfully initiated embryogenic cultures.
The media treatments consisted of: (1) a control media #1043 (see Table 21); (2) media #1218, comprising media #1043 supplemented with 250 mg/l MES buffer; (3) media #1043 supplemented with 0.5 ppm folic acid and 0.05 ppm biotin; and (4) media #1218 supplemented with 0.5 ppm folic acid and 0.05 ppm biotin.
A representative procedure is shown for Loblolly pine. Experimental procedure follow similarly for other conifer but differ slightly in the composition of media used. […] Here, however, each treatment-genotype test consisted of ten replications of ten explants.
The cultures were covered and incubated in the dark at 24-26° C. for nine weeks.
Explants from four Loblolly pine cone collections were prepared and cultured as described in Example 2. The media treatments consisted of control media, #1218, which is media #1043 supplemented. with 250 mg/l MES, and four treatment media, which consist of media #1218 supplemented with 0.33, 1.0, 2.0, and 3.0 ppm paclobutrazol, respectively.
Four cone collections with embryos at stages 2-4 were used. Eighty explants from each cone collection on each media were tested. Seeds were removed from cones and soaked in running water for 10 min. Seeds were then agitated in 10% liquinox containing 1.1 ml/l Tween 20 for 10 min., and then rinsed with running tap water for 30 min. After transferring to a sterile hood, seeds were agitated in 20% H2O2 for 10 min., rinsed with sterile nanopure® H2O five times for 5 to 10 min. intervals, and then placed into a sterile petri dish for dissection. Seeds were dissected by splitting the seed coat, removing the integuments and nucellus. The megagametophyte was placed onto the appropriate medium. Each multi-well test plate contained 2 ml of solid media. Plates were incubated in the dark for 8 weeks and then scored.
The control media, media #1253, is described in detail in Table 16. All test media, #1275, #1421, #1422, and #1423 were comprised of the control media with the addition of a gibberellin inhibitor.

[2] = test system: Loblolly pine embryogenic cultures; test: Growth of Loblolly pine embryogenic cultures from single somatic embryos (tissue diameter, area); format: cell-based; conditions: for Diameter of tissue (mm) / Approximate tissue area (mm^2): four weeks; for Diameter of tissue (mm): control 4.01; for Approximate tissue area (mm^2): control 12.6
Procedure: Three previously initiated Loblolly pine embryogenic cultures, each representing a different genotype, were grown in liquid media #1133, used as starting material for embryogenic cultures on various treatment media. Using a dissecting scope, individual stage 2 somatic embryos were extracted and placed on treatment media in the center of individual wells on a well plate. Forty embryos were prepared per treatment media, per genotype. Well plates were wrapped in Parafilm® and cultured under standard conditions at room temperature in the dark for four weeks. Embryogenic cultures derived from the single isolated embryos proliferated and spread over the surface of the culture medium. Spreading cultures were roughly circular in shape, radiating from the central embryo. At the end of four weeks, the growth of each culture was measured by measuring colony diameter using a dissecting scope ocular micrometer. Five treatment media were compared to control media #1043 (Table 21). Three media consisted of #1043 supplemented with paclobutrazol at concentrations of 0.33, 1.0 and 3.0 ppm. A B-vitamin treatment contained biotin at 0.05 ppm and folic acid at 0.5 ppm. […] The pH of media containing four different concentrations of MES was compared to that of a non-buffered control media during eight weeks of embryogenic culture growth. Maintenance cultures were established on treatment media using single isolated somatic embryos. Maintenance cultures were prepared and cultured essentially as described in Example 5. The control media was #1043. (See Table 21). The treatment media consisted of #1043 supplemented with 250, 500, 1000 and 1500 mg/l MES. Media pH was adjusted to 5.7 within all treatments prior to autoclaving, pouring and solidification. Immediately after pouring the media, and thereafter at two week intervals, media pH was measured up to the eighth week of culture growth. At each sampling time, four cultures from each media-genotype treatment were destructively sampled to measure the pH of the media directly underlying the growing embryogenic tissue. This experiment measured the effects of ABA, vitamins, culturing in a closed container, and culturing at increased atmospheric pressure on the growth of embryogenic cultures. Maintenance cultures were prepared on well plates using single somatic embryos, essentially as described in Example 5.

[3] = Media pH during Loblolly pine embryogenic culture growth; format: physicochemical
Procedure: The pH of media containing four different concentrations of MES was compared to that of a non-buffered control media during eight weeks of embryogenic culture growth. Maintenance cultures were established on treatment media using single isolated somatic embryos. Maintenance cultures were prepared and cultured essentially as described in Example 5.
The control media was #1043. (See Table 21). The treatment media consisted of #1043 supplemented with 250, 500, 1000 and 1500 mg/l MES. Media pH was adjusted to 5.7 within all treatments prior to autoclaving, pouring and solidification. Immediately after pouring the media, and thereafter at two week intervals, media pH was measured up to the eighth week of culture growth. At each sampling time, four cultures from each media-genotype treatment were destructively sampled to measure the pH of the media directly underlying the growing embryogenic tissue.

Structure (SMILES): CC(C)(C)[C@@H](O)[C@@H](Cc1ccc(Cl)cc1)n1cncn1 (racemic) [paclobutrazol]
- Initiation Frequency (%) ([1]; 0.33 ppm in buffered media #1218 (Media 1043 + 250 mg/l MES), control 40.5): 46.8%
- Initiation Frequency (%) ([1]; 0.33 ppm in media #1043, nine weeks, control 39.1): 37.3%
- Initiation Frequency (%) ([1]; 1.0 ppm in buffered media #1218 (Media 1043 + 250 mg/l MES), control 40.5): 46.0%
- Initiation Frequency (%) ([1]; 2.0 ppm in buffered media #1218 (Media 1043 + 250 mg/l MES), control 40.5): 46.1%
- Initiation Frequency (%) ([1]; 3.0 ppm in buffered media #1218 (Media 1043 + 250 mg/l MES), control 40.5): 44.7%
- Initiation Frequency (%) ([1]; base media #1253, 1.0 ppm paclobutrazol, 0.1062 ppm flurprimidol, 1.58 ppm chlormequat-Cl, 0.16 ppm succinic acid-dh, 8 weeks, dark, control 29.5): 35.3%
- Extrusion (%) ([1]; base media #1253, 1.0 ppm paclobutrazol, 0.1062 ppm flurprimidol, 1.58 ppm chlormequat-Cl, 0.16 ppm succinic acid-dh, 8 weeks, dark, control 58.6): 58.1%
- Diameter of tissue (mm) ([2]; 0.33 ppm in media #1043): 4.13 mm
- Approximate tissue area (mm^2) ([2]; 0.33 ppm in media #1043): 13.4 mm^2
- Diameter of tissue (mm) ([2]; 1.0 ppm in media #1043): 5.00 mm
- Approximate tissue area (mm^2) ([2]; 1.0 ppm in media #1043): 19.6 mm^2
- Diameter of tissue (mm) ([2]; 3.0 ppm in media #1043): 5.23 mm
- Approximate tissue area (mm^2) ([2]; 3.0 ppm in media #1043): 21.5 mm^2

- Media pH ([3]; 250 mg/l in media #1043, 0 weeks): 5.55
- Media pH ([3]; 250 mg/l in media #1043, 2 weeks): 5.43
- Media pH ([3]; 250 mg/l in media #1043, 4 weeks): 4.69
- Media pH ([3]; 250 mg/l in media #1043, 6 weeks): 4.68
- Media pH ([3]; 250 mg/l in media #1043, 8 weeks): 4.72
- Media pH ([3]; 500 mg/l in media #1043, 0 weeks): 5.63
- Media pH ([3]; 500 mg/l in media #1043, 2 weeks): 5.50
- Media pH ([3]; 500 mg/l in media #1043, 4 weeks): 4.78
- Media pH ([3]; 500 mg/l in media #1043, 6 weeks): 4.77
- Media pH ([3]; 500 mg/l in media #1043, 8 weeks): 4.54
- Media pH ([3]; 1000 mg/l in media #1043, 0 weeks): 5.67
- Media pH ([3]; 1000 mg/l in media #1043, 2 weeks): 5.57
- Media pH ([3]; 1000 mg/l in media #1043, 4 weeks): 5.38
- Media pH ([3]; 1000 mg/l in media #1043, 6 weeks): 4.70
- Media pH ([3]; 1000 mg/l in media #1043, 8 weeks): 4.89
- Media pH ([3]; 1500 mg/l in media #1043, 0 weeks): 5.67
- Media pH ([3]; 1500 mg/l in media #1043, 2 weeks): 5.59
- Media pH ([3]; 1500 mg/l in media #1043, 4 weeks): 5.59
- Media pH ([3]; 1500 mg/l in media #1043, 6 weeks): 4.91
- Media pH ([3]; 1500 mg/l in media #1043, 8 weeks): 5.18
Structure (SMILES): O=S(=O)(O)CCN1CCOCC1 [MES, 2-(N-morpholino)-ethanesulfonic acid]
- Initiation Frequency (%) ([1]; base media #1043, MES 250 mg/l, vitamins = 0.5 ppm folic acid + 0.05 ppm biotin, nine weeks, dark, control 42.9): 47.7%
- Growth of cultures, as measured by culture diameter, relative to the control ([2]; 250 mg/l MES in media #1043): increased
- Growth of cultures, as measured by culture diameter, relative to the control ([2]; higher concentrations of MES (500, 1000, 1500 mg/l) in media #1043): inhibited
